From US9321722B2, “Bis-indolic derivatives, their uses in particular as antibacterials” (UNIVERSITE JOSEPH FOURIER, priority 2011, dated 2016)
Values after ≈ are worked out from the molar mass of the structure shown.

Assays:
Format in all cases: cell-based
[1] = test system: Klebsiella pneumoniae ATCC 35657; experiment: MIC microdilution (Table I-1); conditions: ATCC35657, read after 18 hours, read-out: MIC
How it was run: (§1)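 CLSI broth microdilution in Mueller Hinton broth, final inoculum 5×10^5 CFU/ml. Compounds tested as two-fold serial dilutions, 0.50–128 mg/L final, plates incubated at 37 °C in ambient air; MIC read as lowest concentration inhibiting growth.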

[2] = test system: Bacillus subtilis CIP 5262; experiment: MIC microdilution (Table I-1); conditions: CIP5262, read after 18 hours, read-out: MIC
How it was run: as §1

[3] = test system: Acinetobacter baumanii ATCC 19606; experiment: MIC microdilution (Table I-1); conditions: Acinetobacter baumannii, ATCC19606, read after 18 hours
How it was run: as §1

[4] = test system: Escherichia coli ATCC 25922; experiment: MIC microdilution (Table I-1); conditions: ATCC25922, read after 18 hours
How it was run: as §1

[5] = test system: Listeria innocua CIP 80.11; experiment: MIC microdilution (Table I-1); conditions: CIP80, read after 18 hours, read-out: MIC
How it was run: as §1

[6] = test system: Staphylococcus hominis (CHUG-Shom8); experiment: MIC, Staphylococcus panel (Table I-2); conditions: 18 h, 4% DMSO
Experimental: (§2) We used the previously described protocol, with subtle modifications. The microdilution method recommended by the Clinical and Laboratory Standard Institute [M07-A9, Vol. 32, N^o 2] was used. The activity of bis-indolic compounds was tested against 35 bacterial strains belonging to 12 different Staphylococcus species.
(§3) Bacterial inocula were prepared in Mueller Hinton broth (MH2, BioMerieux, Marcy L'Etoile, France). They were dispensed in 96 well microtiter plates (5×10^5 CFU/ml of final inoculum, 192 μL per well). Indolic compounds diluted in pure DMSO (8 μL per well, concentrated 25 times) were added to the wells as to obtain two-fold serial concentrations (0.5-32 mg/L of final concentrations). The final concentration of DMSO was 4% in each well.
(§4) To avoid cross-contaminations in microtiter plates, one row was left blank between each strain tested. Microplates were incubated for 18 h at 37° C. in ambient air or at 37° C. in 5% CO2 enriched atmosphere for fastidious species. Then MICs were read visually and, in case of visual reading difficulties, confirmed using a spectrophotometer at a wavelength of 630 nm (BioTek® EL808 Absorbance Microplate Reader). MICs corresponded to the minimum bis-indolic compound concentration that allowed complete visual growth inhibition of bacteria. Drug-free cultures served as growth controls.
(§5) Coagulase-negative Staphylococcus strains included three reference strains purchased from CRBIP: a methicillin-susceptible S. epidermidis strain (ATCC 12228), a methicillin-resistant S. epidermidis strain (ATCC 49461), and a methicillin-susceptible S. sciuri strain (ATCC 29061). We also used clinical strains belonging to the following coagulase-negative Staphylococcus species: S. auricularis (two strains), S. warneri (five strains), S. capitis (five strains), S. haemolyticus (four strains), S. hominis (seven strains), S. cohnii (two strains), and S. saprophyticus, S. caprae and S. simulans (one strain each). Identification of the clinical strains was obtained using VITEK® 2 System (Biomérieux).

[7] = test system: Staphylococcus saprophyticus (CHUG-Ssap2); experiment: MIC, Staphylococcus panel (Table I-2); conditions: 18 h, 4% DMSO
Experimental: as §2, §3, §4, §5

[8] = test system: Staphylococcus warneri (CHUG-Swar1); experiment: MIC, Staphylococcus panel (Table I-2); conditions: 18 h, 4% DMSO
Experimental: as §2, §3, §4, §5

[9] = test system: Staphylococcus cohnii (CHUG-Scoh1) (MRSA); experiment: MIC, Staphylococcus panel (Table I-2); conditions: 18 h, 4% DMSO
Experimental: as §2, §3, §4, §5

[10] = test system: Staphylococcus auricularis (CHUG-Saur3); experiment: MIC, Staphylococcus panel (Table I-2); conditions: 18 h, 4% DMSO
Experimental: as §2, §3, §4, §5

[11] = test system: Staphylococcus warneri (CHUG-Swar7); experiment: MIC, Staphylococcus panel (Table I-2); conditions: 18 h, 4% DMSO
Experimental: as §2, §3, §4, §5

[12] = test system: Staphylococcus hominis (CHUG-Shom3); experiment: MIC, Staphylococcus panel (Table I-2); conditions: 18 h, 4% DMSO
Experimental: as §2, §3, §4, §5

[13] = test system: Staphylococcus epidermidis ATCC 49461; experiment: MIC, Staphylococcus panel (Table I-2); conditions: ATCC49461, 18 h, 4% DMSO
Experimental: as §2, §3, §4, §5

[14] = test system: Staphylococcus aureus 1199B (overexpression of the NorA efflux pump); experiment: Efflux pump inhibition assay with sub-inhibitory ciprofloxacin
Experimental: (§6) The efflux pump inhibition potential of the bis-indolic derivatives was tested using two steps. In a first step, the intrinsic antibacterial activity of the compounds was assayed against the following strains:
(§7) The following experimental protocol was used: indolic derivatives (initially solubilised in DMSO at 10 mg/mL) were dispensed in a 96-wells microplate by two fold serial dilutions in Muller-Hinton medium (MH, Bio Rad) using a Biomek 2000 (Beckman) handling robot. 100 μL of the bacterial inoculum (an overnight culture at 37° C. in 5 mL MH diluted 100-fold) was then added in each well. The total volume was 200 μL in each well and the final bacteria concentration 10^6 CFU/mL (CFU: colony forming unit). The highest final indolic derivative concentration was 128 mg/L. Growth was assayed with a microplate reader by monitoring absorption at 620 nm after 1, 2, 5, 7 and 24 h incubation at 37° C. In addition, the plates were read visually after 24 hours incubation. Cultures containing 5 μL DMSO were used as growth controls. In addition, two controls containing a sub-inhibitory or a inhibitory antibiotic concentration for the tested strain were performed. The antibiotics used were ampicillin (0.5 and 32 μg/mL) for E. coli, kanamycin (0.5 and 16 μg/mL) for S. aureus ATCC 25923, ciprofloxacin (4 and 64 mg/L) for S. aureus 1199B, ciprofloxacin (0.5 and 2 mg/L) for S. aureus K2378. All experiments were performed in duplicate.
(§8) Efflux pump inhibition assays were then performed against resistant Staphylococcus aureus strains SA 1199B and SA K2378 for bis-indolic derivatives. […] The minimal inhibitory concentration (MIC) of the bis-indolic compound allowing a complete inhibition of the bacterial growth in the presence of ciprofloxacin was determined.

[15] = test system: Staphylococcus aureus K2378 (overexpresses the efflux pump NorA from a multicopy plasmid); experiment: as above
Experimental: as §6, §7, §8

[16] = in the presence of ciprofloxacin 4 mg/L (MIC/4)
[17] = in the presence of ciprofloxacin 0.25 mg/L (MIC/8)

SMILES | MIC [1] [µg/mL] | MIC [2] [µg/mL] | MIC [3] [µg/mL] | MIC [4] [µg/mL] | MIC [5] [µg/mL] | MIC [6] [µg/mL] | MIC [7] [µg/mL] | MIC [8] [µg/mL] | MIC [9] [µg/mL] | MIC [10] [µg/mL] | MIC [11] [µg/mL] | MIC [12] [µg/mL] | MIC [13] [µg/mL] | CMI, mg/L (Ciprofloxacin concentration, mg/L) [14, 16] | CMI, mg/L (Ciprofloxacin concentration, mg/L) [15, 17] | CMI, mg/L (Ciprofloxacin concentration, mg/L) ([14]; in the presence of ciprofloxacin 2 mg/L (MIC/8)) | CMI, mg/L (Ciprofloxacin concentration, mg/L) ([15]; in the presence of ciprofloxacin 0.5 mg/L (MIC/4))
CC(NC(=O)C(=O)c1c[nH]c2ccc(Br)cc12)c1c[nH]c2ccc(Br)cc12 (stereo not shown) [Compound 5, 2-(5-Bromo-1H-indol-3-yl)-N-(1-(5-bromo-1H-indol-3-yl)ethyl)-2-oxoacetamide] | > 128 | 64 (≈ 131 µM) | > 128 | > 128 | 64 (≈ 131 µM) | 2 (≈ 4.09 µM) | 2 (≈ 4.09 µM) | 2 (≈ 4.09 µM) | 2 (≈ 4.09 µM) | 1 (≈ 2.04 µM) | 2 (≈ 4.09 µM) | 2 (≈ 4.09 µM) | 2 (≈ 4.09 µM) |  |  |  | 
CC(C)(C)OC(=O)N1CCN(C(=O)C(=O)c2c[nH]c3ccccc23)C(c2c[nH]c3ccccc23)C1 (stereo not shown) [Compound 6c, tert-Butyl 4-(2-(1H-indol-3-yl)-2-oxoacetyl)-3-(1H-indol-3-yl)piperazine-1-carboxylate] | > 128 | > 128 | > 128 | > 128 | > 128 |  |  |  |  |  |  |  |  | 0.25 (4) mg/L | 16 (0.25) mg/L |  | 
O=C(C(=O)N1CCCCC1c1c[nH]c2ccc(Br)cc12)c1c[nH]c2ccc(Br)cc12 (stereo not shown) [Compound 6d, 1-(5-Bromo-1H-indol-3-yl)-2-(2-(5-bromo-1H-indol-3-yl)piperidin-1-yl)ethane-1,2-dione] | > 128 | > 128 | > 128 | > 128 | > 128 |  |  |  |  |  |  |  |  | <0.125 (4) mg/L | 8 (0.25) mg/L |  | 
O=C(C(=O)N1CCOCC1c1c[nH]c2ccccc12)c1c[nH]c2ccccc12 (stereo not shown) [Compound 6b, 1-(3-(1H-Indol-3-yl)morpholino)-2-(1H-indol-3-yl)ethane-1,2-dione] | > 128 | > 128 | > 128 | > 128 | > 128 |  |  |  |  |  |  |  |  | 0.5 (4) mg/L | 16 (0.25) mg/L |  | 
CC(C)(C)OC(=O)NCC(NC(=O)C(=O)c1c[nH]c2ccc(Br)cc12)c1c[nH]c2ccc(Br)cc12 (stereo not shown) [Compound 4, tert-Butyl(2-(5-bromo-1H-indol-3-yl)-2-(2-(5-bromo-1H-indol-3-yl)-2-oxoacetamido)ethyl) carbamate] | > 128 |  | > 128 | > 128 |  | 1 (≈ 1.65 µM) | 1 (≈ 1.65 µM) | 1 (≈ 1.65 µM) | 1 (≈ 1.65 µM) | 1 (≈ 1.65 µM) | 1 (≈ 1.65 µM) | 1 (≈ 1.65 µM) | 1 (≈ 1.65 µM) |  |  |  | 
CC(C)(C)OC(=O)NCC(NC(=O)C(=O)c1c[nH]c2ccccc12)c1c[nH]c2ccccc12 (stereo not shown) [Compound 2, tert-Butyl(2-(2-(1H-indol-3-yl)-2-oxoacetamido)-2-(1H-indol-3-yl)ethyl)carbamate] | > 128 | > 128 | > 128 | > 128 | > 128 |  |  |  |  |  |  |  |  | 0.5 (4) mg/L |  | 2 (2) mg/L | 
O=C(C(=O)N1CCCCC1c1c[nH]c2ccccc12)c1c[nH]c2ccccc12 (stereo not shown) [Compound 6a, 1-(2-(1H-Indol-3-yl)piperidin-1-yl)-2-(1H-indol-3-yl)ethane-1,2-dione] | > 128 | > 128 | > 128 | > 128 | > 128 |  |  |  |  |  |  |  |  | <0.125 (4) mg/L | 8 (0.25) mg/L |  | 
CC(C)(C)OC(=O)N1CCN(C(=O)C(=O)c2c[nH]c3ccc(Br)cc23)C(c2c[nH]c3ccc(Br)cc23)C1 (stereo not shown) [Compound 6f, tert-Butyl 3-(5-bromo-1H-indol-3-yl)-4-(2-(5-bromo-1H-indol-3-yl)-2-oxoacetyl) piperazine-1-carboxylate] | > 128 | > 128 | > 128 | > 128 | > 128 |  |  |  |  |  |  |  |  | <0.25 (4) mg/L | 1 (0.25) mg/L |  | 1 (0.5) mg/L
